Assay results published in publication PMC6409085, “Three odorant-binding proteins are involved in the behavioral response of Sogatella furcifera to rice plant volatiles” (PeerJ, 2019).
Where “and” joins values, the source holds several entries; their conditions need not be identical. Identical values can stand only once.

How the values were obtained:
SfurOBP1 = SfurOBP1 (Sogatella furcifera, UniProt V5T8N5); assay: biochemical; type: binding; settings: for Fluorescence competitive binding assay, fluorescence intensity: OBP1, three replicate columns
SfurOBP1, sequence (V5T8N5 entry or part of it): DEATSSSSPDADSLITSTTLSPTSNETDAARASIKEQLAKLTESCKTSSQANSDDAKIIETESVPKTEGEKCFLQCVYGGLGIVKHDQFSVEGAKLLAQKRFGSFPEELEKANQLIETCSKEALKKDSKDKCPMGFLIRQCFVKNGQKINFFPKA
Procedure, shortened: (§1)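 K1-NPN came from titrating 2.0 µM protein (50 mM Tris-HCl, pH 7.4) with 1-NPN. Odorants at 2-20 µM then competed against 2.0 µM protein plus 2.0 µM 1-NPN for 2 min, with excitation at 337 nm and emission recorded over 390-490 nm. IC50 values were converted to Ki via Ki = IC50/(1 + [1-NPN]/K1-NPN).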

SfurOBP11 = SfurOBP11 (Sogatella furcifera, UniProt V5T6E3); assay: biochemical; type: binding
SfurOBP11, sequence (V5T6E3 entry or part of it): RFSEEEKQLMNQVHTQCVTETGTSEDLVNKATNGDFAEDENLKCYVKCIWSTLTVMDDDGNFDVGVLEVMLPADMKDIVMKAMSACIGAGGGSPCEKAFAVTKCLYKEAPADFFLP
Procedure, shortened: as §1

SfurOBP3 = SfurOBP3 (Sogatella furcifera, UniProt V5T818); assay: biochemical; type: binding; settings: for Fluorescence competitive binding assay, fluorescence intensity: OBP3, three replicate columns
SfurOBP3, sequence (V5T818 entry or part of it): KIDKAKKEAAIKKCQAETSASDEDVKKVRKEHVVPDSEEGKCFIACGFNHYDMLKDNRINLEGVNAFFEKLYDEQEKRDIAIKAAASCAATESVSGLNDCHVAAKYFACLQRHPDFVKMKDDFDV
Procedure, shortened: as §1

SfurOBP2 = SfurOBP2 (Sogatella furcifera, UniProt V5T759); assay: biochemical; type: binding
SfurOBP2, sequence (V5T759 entry or part of it): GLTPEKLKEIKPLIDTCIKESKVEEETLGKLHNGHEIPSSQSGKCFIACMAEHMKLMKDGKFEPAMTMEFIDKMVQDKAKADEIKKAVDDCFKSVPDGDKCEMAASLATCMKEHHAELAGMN
Procedure, shortened: as §1

S. furcifera adults = assay: Y-tube olfactometer behavioral trials; type: in vivo, Sogatella furcifera; settings: odorant 50 µL/L vs hexane; adults
Procedure, shortened: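 Single S. furcifera adults (2 days post-emergence, starved 0.5 h) chose between odorant (100 µL of 50 µL/L on filter paper) and hexane control in a glass Y-tube, charcoal-filtered humidified air 300 mL/min per arm, 25 ± 1 °C, 50% RH. Choice scored if insect passed half an arm and stayed >1 min within 10 min; 45 insects per compound, chi-squared test.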

Cc1ccc(C(C)C)cc1 [4-isopropyltoluene]
IC50 (SfurOBP1): > 20 µM
Fluorescence competitive binding assay, fluorescence intensity (SfurOBP1; ligand concentration 2 (μM)): 7244 and 8974 and 9151
Fluorescence competitive binding assay, fluorescence intensity (SfurOBP1; ligand concentration 4 (μM)): 8883 and 8922 and 8958
Fluorescence competitive binding assay, fluorescence intensity (SfurOBP1; ligand concentration 6 (μM)): 7592 and 6723 and 7351
Fluorescence competitive binding assay, fluorescence intensity (SfurOBP1; ligand concentration 8 (μM)): 6920 and 7774 and 7302
Fluorescence competitive binding assay, fluorescence intensity (SfurOBP1; ligand concentration 10 (μM)): 7780 and 7649 and 7941
Fluorescence competitive binding assay, fluorescence intensity (SfurOBP1; ligand concentration 12 (μM)): 6330 and 8293 and 7991
Fluorescence competitive binding assay, fluorescence intensity (SfurOBP1; ligand concentration 14 (μM)): 6493 and 6423 and 6689
Fluorescence competitive binding assay, fluorescence intensity (SfurOBP1; ligand concentration 16 (μM)): 5419 and 7344 and 6052
Fluorescence competitive binding assay, fluorescence intensity (SfurOBP1; ligand concentration 18 (μM)): 6795 and 8973 and 7227
Fluorescence competitive binding assay, fluorescence intensity (SfurOBP1; ligand concentration 20 (μM)): 8723 and 7567 and 6306
IC50 (SfurOBP11): > 20 µM
Fluorescence intensity, fluorescence competitive binding assay, OBP11 (SfurOBP11; ligand concentration 2, replicate 1): 35978
Fluorescence intensity, fluorescence competitive binding assay, OBP11 (SfurOBP11; ligand concentration 2, replicate 2): 29566
Fluorescence intensity, fluorescence competitive binding assay, OBP11 (SfurOBP11; ligand concentration 2, replicate 3): 32252
Fluorescence intensity, fluorescence competitive binding assay, OBP11 (SfurOBP11; ligand concentration 4, replicate 1): 30015
Fluorescence intensity, fluorescence competitive binding assay, OBP11 (SfurOBP11; ligand concentration 4, replicate 2): 32067
Fluorescence intensity, fluorescence competitive binding assay, OBP11 (SfurOBP11; ligand concentration 4, replicate 3): 31035
Fluorescence intensity, fluorescence competitive binding assay, OBP11 (SfurOBP11; ligand concentration 6, replicate 1): 30703
Fluorescence intensity, fluorescence competitive binding assay, OBP11 (SfurOBP11; ligand concentration 6, replicate 2): 29596
Fluorescence intensity, fluorescence competitive binding assay, OBP11 (SfurOBP11; ligand concentration 6, replicate 3): 29854
Fluorescence intensity, fluorescence competitive binding assay, OBP11 (SfurOBP11; ligand concentration 8, replicate 1): 26981
Fluorescence intensity, fluorescence competitive binding assay, OBP11 (SfurOBP11; ligand concentration 8, replicate 2): 27991
Fluorescence intensity, fluorescence competitive binding assay, OBP11 (SfurOBP11; ligand concentration 8, replicate 3): 25842
Fluorescence intensity, fluorescence competitive binding assay, OBP11 (SfurOBP11; ligand concentration 10, replicate 1): 25875
Fluorescence intensity, fluorescence competitive binding assay, OBP11 (SfurOBP11; ligand concentration 10, replicate 2): 25879
Fluorescence intensity, fluorescence competitive binding assay, OBP11 (SfurOBP11; ligand concentration 10, replicate 3): 25958
Fluorescence intensity, fluorescence competitive binding assay, OBP11 (SfurOBP11; ligand concentration 12, replicate 1): 23828
Fluorescence intensity, fluorescence competitive binding assay, OBP11 (SfurOBP11; ligand concentration 12, replicate 2): 23071
Fluorescence intensity, fluorescence competitive binding assay, OBP11 (SfurOBP11; ligand concentration 12, replicate 3): 23450
Fluorescence intensity, fluorescence competitive binding assay, OBP11 (SfurOBP11; ligand concentration 14, replicate 1): 21639
Fluorescence intensity, fluorescence competitive binding assay, OBP11 (SfurOBP11; ligand concentration 14, replicate 2): 22165
Fluorescence intensity, fluorescence competitive binding assay, OBP11 (SfurOBP11; ligand concentration 14, replicate 3): 24226
Fluorescence intensity, fluorescence competitive binding assay, OBP11 (SfurOBP11; ligand concentration 16, replicate 1): 19389
Fluorescence intensity, fluorescence competitive binding assay, OBP11 (SfurOBP11; ligand concentration 16, replicate 2): 17044
Fluorescence intensity, fluorescence competitive binding assay, OBP11 (SfurOBP11; ligand concentration 16, replicate 3): 20238
Fluorescence intensity, fluorescence competitive binding assay, OBP11 (SfurOBP11; ligand concentration 18, replicate 1): 24841
Fluorescence intensity, fluorescence competitive binding assay, OBP11 (SfurOBP11; ligand concentration 18, replicate 2): 23918
Fluorescence intensity, fluorescence competitive binding assay, OBP11 (SfurOBP11; ligand concentration 18, replicate 3): 23440
Fluorescence intensity, fluorescence competitive binding assay, OBP11 (SfurOBP11; ligand concentration 20, replicate 1): 24558
Fluorescence intensity, fluorescence competitive binding assay, OBP11 (SfurOBP11; ligand concentration 20, replicate 2): 23570
Fluorescence intensity, fluorescence competitive binding assay, OBP11 (SfurOBP11; ligand concentration 20, replicate 3): 24060
IC50 (SfurOBP3): > 20 µM
Fluorescence competitive binding assay, fluorescence intensity (SfurOBP3; ligand concentration 2): 76459 and 72745 and 73014
Fluorescence competitive binding assay, fluorescence intensity (SfurOBP3; ligand concentration 4): 75454 and 75539 and 76517
Fluorescence competitive binding assay, fluorescence intensity (SfurOBP3; ligand concentration 6): 77021 and 76644 and 73341
Fluorescence competitive binding assay, fluorescence intensity (SfurOBP3; ligand concentration 8): 70448 and 67651 and 65820
Fluorescence competitive binding assay, fluorescence intensity (SfurOBP3; ligand concentration 10): 65984 and 64535 and 66083
Fluorescence competitive binding assay, fluorescence intensity (SfurOBP3; ligand concentration 12): 59229 and 62714 and 59705
Fluorescence competitive binding assay, fluorescence intensity (SfurOBP3; ligand concentration 14): 51855 and 54624 and 58162
Fluorescence competitive binding assay, fluorescence intensity (SfurOBP3; ligand concentration 16): 47509 and 50343 and 51946
Fluorescence competitive binding assay, fluorescence intensity (SfurOBP3; ligand concentration 18): 53658 and 55976 and 54775
Fluorescence competitive binding assay, fluorescence intensity (SfurOBP3; ligand concentration 20): 49838 and 49582 and 48822
IC50 (SfurOBP2): > 20 µM
Fluorescence competitive binding assay, OBP2 (raw fluorescence reading) (SfurOBP2; ligand concentration 2 (unit not given), replicate column 1 of 3): 17529
Fluorescence competitive binding assay, OBP2 (raw fluorescence reading) (SfurOBP2; ligand concentration 2 (unit not given), replicate column 2 of 3): 17068
Fluorescence competitive binding assay, OBP2 (raw fluorescence reading) (SfurOBP2; ligand concentration 2 (unit not given), replicate column 3 of 3): 16667
Fluorescence competitive binding assay, OBP2 (raw fluorescence reading) (SfurOBP2; ligand concentration 4 (unit not given), replicate column 1 of 3): 17068
Fluorescence competitive binding assay, OBP2 (raw fluorescence reading) (SfurOBP2; ligand concentration 4 (unit not given), replicate column 2 of 3): 16662
Fluorescence competitive binding assay, OBP2 (raw fluorescence reading) (SfurOBP2; ligand concentration 4 (unit not given), replicate column 3 of 3): 16270
Fluorescence competitive binding assay, OBP2 (raw fluorescence reading) (SfurOBP2; ligand concentration 6 (unit not given), replicate column 1 of 3): 17127
Fluorescence competitive binding assay, OBP2 (raw fluorescence reading) (SfurOBP2; ligand concentration 6 (unit not given), replicate column 2 of 3): 17348
Fluorescence competitive binding assay, OBP2 (raw fluorescence reading) (SfurOBP2; ligand concentration 6 (unit not given), replicate column 3 of 3): 16845
Fluorescence competitive binding assay, OBP2 (raw fluorescence reading) (SfurOBP2; ligand concentration 8 (unit not given), replicate column 1 of 3): 17260
Fluorescence competitive binding assay, OBP2 (raw fluorescence reading) (SfurOBP2; ligand concentration 8 (unit not given), replicate column 2 of 3): 16330
Fluorescence competitive binding assay, OBP2 (raw fluorescence reading) (SfurOBP2; ligand concentration 8 (unit not given), replicate column 3 of 3): 16495
Fluorescence competitive binding assay, OBP2 (raw fluorescence reading) (SfurOBP2; ligand concentration 10 (unit not given), replicate column 1 of 3): 16487
Fluorescence competitive binding assay, OBP2 (raw fluorescence reading) (SfurOBP2; ligand concentration 10 (unit not given), replicate column 2 of 3): 17551
Fluorescence competitive binding assay, OBP2 (raw fluorescence reading) (SfurOBP2; ligand concentration 10 (unit not given), replicate column 3 of 3): 16673
Fluorescence competitive binding assay, OBP2 (raw fluorescence reading) (SfurOBP2; ligand concentration 12 (unit not given), replicate column 1 of 3): 14433
Fluorescence competitive binding assay, OBP2 (raw fluorescence reading) (SfurOBP2; ligand concentration 12 (unit not given), replicate column 2 of 3): 15818
Fluorescence competitive binding assay, OBP2 (raw fluorescence reading) (SfurOBP2; ligand concentration 12 (unit not given), replicate column 3 of 3): 14693
Fluorescence competitive binding assay, OBP2 (raw fluorescence reading) (SfurOBP2; ligand concentration 14 (unit not given), replicate column 1 of 3): 14333
Fluorescence competitive binding assay, OBP2 (raw fluorescence reading) (SfurOBP2; ligand concentration 14 (unit not given), replicate column 2 of 3): 14565
Fluorescence competitive binding assay, OBP2 (raw fluorescence reading) (SfurOBP2; ligand concentration 14 (unit not given), replicate column 3 of 3): 13503
Fluorescence competitive binding assay, OBP2 (raw fluorescence reading) (SfurOBP2; ligand concentration 16 (unit not given), replicate column 1 of 3): 12972
Fluorescence competitive binding assay, OBP2 (raw fluorescence reading) (SfurOBP2; ligand concentration 16 (unit not given), replicate column 2 of 3): 13456
Fluorescence competitive binding assay, OBP2 (raw fluorescence reading) (SfurOBP2; ligand concentration 16 (unit not given), replicate column 3 of 3): 13282
Fluorescence competitive binding assay, OBP2 (raw fluorescence reading) (SfurOBP2; ligand concentration 18 (unit not given), replicate column 1 of 3): 13043
Fluorescence competitive binding assay, OBP2 (raw fluorescence reading) (SfurOBP2; ligand concentration 18 (unit not given), replicate column 2 of 3): 13102
Fluorescence competitive binding assay, OBP2 (raw fluorescence reading) (SfurOBP2; ligand concentration 18 (unit not given), replicate column 3 of 3): 13475
Fluorescence competitive binding assay, OBP2 (raw fluorescence reading) (SfurOBP2; ligand concentration 20 (unit not given), replicate column 1 of 3): 13105
Fluorescence competitive binding assay, OBP2 (raw fluorescence reading) (SfurOBP2; ligand concentration 20 (unit not given), replicate column 2 of 3): 12354
Fluorescence competitive binding assay, OBP2 (raw fluorescence reading) (SfurOBP2; ligand concentration 20 (unit not given), replicate column 3 of 3): 13093
number of insects choosing hexane arm (S. furcifera adults): 13
number of insects choosing volatilies arm (S. furcifera adults): 11
number of insects failed (no choice) (S. furcifera adults): 16
